In US20230398130A1, “METHODS AND COMPOSITIONS FOR DIFFERENTIATING STEM CELLS” (Massachusetts Institute of Technology, priority 2020, published 2023):

Assays:
ISC-enriched organoids [1] = experiment: Primary screen, 384-well 2.5-D organoid differentiation (ENR+CD, 6 days): basal lysozyme secretion (LYZ.NS); format: cell-based, murine; details: primary screen; for Dose.FC.LYZ.NS: FC vs plate median; for Z.LYZ.NS: standard z score; for SSMD.LYZ.NS: strictly standardized mean difference
Description: (§1) High-throughput screening.

ISC-enriched organoids [2] = experiment: Primary screen, 384-well 2.5-D organoid differentiation (ENR+CD, 6 days): carbachol-induced lysozyme secretion (LYZ.S); format: cell-based, murine; details: primary screen; for Dose.FC.LYZ.S: FC vs plate median; for Z.LYZ.S: standard z score; for SSMD.LYZ.S: strictly standardized mean difference
Description: as §1

ISC-enriched organoids [3] = experiment: Primary screen, 384-well 2.5-D organoid differentiation (ENR+CD, 6 days, Target Selective Inhibitor Library, vs whole-plate median): ATP (CellTiter-Glo 3D, CTG); details: primary screen; for Dose.FC.CTG: FC vs plate median; for Z.CTG: standard z score; for SSMD.CTG: strictly standardized mean difference
[4] = 1st of the 4 dose lines of the treatment (dose not given)
[5] = 2nd of the 4 dose lines of the treatment (dose not given)
[6] = 3rd of the 4 dose lines of the treatment (dose not given)
[7] = 4th of the 4 dose lines of the treatment (dose not given)

Row | Compound | Dose.FC.LYZ.NS (ISC-enriched organoids [1]; Dose 0.08 uM) [log 2 fold change] | Z.LYZ.NS (ISC-enriched organoids [1]; Dose 0.08 uM) | Dose.FC.LYZ.NS (ISC-enriched organoids [1]; Dose 0.40 uM) [log 2 fold change] | Z.LYZ.NS (ISC-enriched organoids [1]; Dose 0.40 uM) | Dose.FC.LYZ.NS (ISC-enriched organoids [1]; Dose 2.00 uM) [log 2 fold change] | Z.LYZ.NS (ISC-enriched organoids [1]; Dose 2.00 uM) | Dose.FC.LYZ.NS (ISC-enriched organoids [1]; Dose 10.00 uM) [log 2 fold change] | Z.LYZ.NS (ISC-enriched organoids [1]; Dose 10.00 uM) | SSMD.LYZ.NS (ISC-enriched organoids [1]; [6]) | SSMD.LYZ.NS (ISC-enriched organoids [1]; [7]) | Dose.FC.LYZ.S (ISC-enriched organoids [2]; Dose 0.08 uM) [log 2 fold change] | Dose.FC.LYZ.S (ISC-enriched organoids [2]; Dose 0.40 uM) [log 2 fold change] | Dose.FC.LYZ.S (ISC-enriched organoids [2]; Dose 2.00 uM) [log 2 fold change] | Dose.FC.LYZ.S (ISC-enriched organoids [2]; Dose 10.00 uM) [log 2 fold change] | Z.LYZ.S (ISC-enriched organoids [2]; [6]) | Z.LYZ.S (ISC-enriched organoids [2]; [7]) | SSMD.LYZ.S (ISC-enriched organoids [2]; [6]) | SSMD.LYZ.S (ISC-enriched organoids [2]; [7]) | Dose.FC.CTG (ISC-enriched organoids [3]; Dose 0.08 uM) [log 2 fold change] | Z.CTG (ISC-enriched organoids [3]; Dose 0.08 uM) | further results
1 | O=C(O)CCc1ccc(NCc2cccc(Oc3ccccc3)c2)cc1 [GW9508] | 0.075 | 0.650 | 0.019 | 0.169 | −0.011 | −0.092 | −0.040 | −0.350 | −0.064 | −0.358 | 0.067 | 0.049 | 0.000 | −0.045 | 0.003 | −0.289 | 0.002 | −0.176 | 0.063 | 0.151 | SSMD.LYZ.NS (ISC-enriched organoids [1]; [4]): 0.536; SSMD.LYZ.NS (ISC-enriched organoids [1]; [5]): 0.122; Z.LYZ.S (ISC-enriched organoids [2]; [4]): 0.434; Z.LYZ.S (ISC-enriched organoids [2]; [5]): 0.316; SSMD.LYZ.S (ISC-enriched organoids [2]; [4]): 0.329; SSMD.LYZ.S (ISC-enriched organoids [2]; [5]): 0.225; Dose.FC.CTG (ISC-enriched organoids [3]; Dose 0.40 uM): 0.174 log 2 fold change; Z.CTG (ISC-enriched organoids [3]; Dose 0.40 uM): 0.417; Dose.FC.CTG (ISC-enriched organoids [3]; Dose 2.00 uM): −0.001 log 2 fold change; Z.CTG (ISC-enriched organoids [3]; Dose 2.00 uM): −0.003; Dose.FC.CTG (ISC-enriched organoids [3]; Dose 10.00 uM): −0.059 log 2 fold change; Z.CTG (ISC-enriched organoids [3]; Dose 10.00 uM): −0.140; SSMD.CTG (ISC-enriched organoids [3]; [4]): 0.128; SSMD.CTG (ISC-enriched organoids [3]; [5]): 0.384; SSMD.CTG (ISC-enriched organoids [3]; [6]): −0.003; SSMD.CTG (ISC-enriched organoids [3]; [7]): −0.134
2 | O=C(Nc1ccccc1)c1cc([N+](=O)[O-])ccc1Cl [GW9662] | 0.035 | 0.305 | 0.098 | 0.852 | 0.046 | 0.400 | 0.030 | 0.264 | 0.336 | 0.282 | 0.036 | 0.080 | 0.093 | 0.020 | 0.599 | 0.131 | 0.571 | 0.149 | 0.115 | 0.274 | SSMD.LYZ.NS (ISC-enriched organoids [1]; [4]): 0.272; SSMD.LYZ.NS (ISC-enriched organoids [1]; [5]): 0.722; Z.LYZ.S (ISC-enriched organoids [2]; [4]): 0.235; Z.LYZ.S (ISC-enriched organoids [2]; [5]): 0.520; SSMD.LYZ.S (ISC-enriched organoids [2]; [4]): 0.218; SSMD.LYZ.S (ISC-enriched organoids [2]; [5]): 0.534; Dose.FC.CTG (ISC-enriched organoids [3]; Dose 0.40 uM): 0.041 log 2 fold change; Z.CTG (ISC-enriched organoids [3]; Dose 0.40 uM): 0.098; Dose.FC.CTG (ISC-enriched organoids [3]; Dose 2.00 uM): 0.212 log 2 fold change; Z.CTG (ISC-enriched organoids [3]; Dose 2.00 uM): 0.508; Dose.FC.CTG (ISC-enriched organoids [3]; Dose 10.00 uM): 0.133 log 2 fold change; Z.CTG (ISC-enriched organoids [3]; Dose 10.00 uM): 0.318; SSMD.CTG (ISC-enriched organoids [3]; [4]): 0.301; SSMD.CTG (ISC-enriched organoids [3]; [5]): 0.117; SSMD.CTG (ISC-enriched organoids [3]; [6]): 0.715; SSMD.CTG (ISC-enriched organoids [3]; [7]): 0.378
3 | Cn1cc(/C=C2\C(=O)Nc3cccnc32)c2ccccc21 [GW441756] | 0.046 | 0.399 | 0.061 | 0.529 | 0.117 | 1.023 | 0.088 | 0.763 | 1.215 | 0.357 | 0.075 | 0.196 | 0.125 | 0.071 | 0.806 | 0.458 | 0.911 | 0.449 | 0.048 | 0.114 | Dose.FC.CTG (ISC-enriched organoids [3]; Dose 0.40 uM): −0.105 log 2 fold change; Z.CTG (ISC-enriched organoids [3]; Dose 0.40 uM): −0.252; Dose.FC.CTG (ISC-enriched organoids [3]; Dose 2.00 uM): 0.152 log 2 fold change; Z.CTG (ISC-enriched organoids [3]; Dose 2.00 uM): 0.364; Dose.FC.CTG (ISC-enriched organoids [3]; Dose 10.00 uM): −0.113 log 2 fold change; Z.CTG (ISC-enriched organoids [3]; Dose 10.00 uM): −0.270; SSMD.CTG (ISC-enriched organoids [3]; [6]): 0.468; SSMD.CTG (ISC-enriched organoids [3]; [7]): −0.350
